One experiment has as its target Cat L (UniProt P07711). The experiment is described as follows: Cathepsin enzyme inhibition assay (fluorogenic peptide substrate Z-Val-Val-Arg-AMC), Cathepsin L. Type of experiment: biochemical, human and mouse. The note with it: enzyme 1 nM, substrate 20 μM, pH 6.5; read-out: CatL IC50. The essentials: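 Fluorogenic cleavage of Z-Val-Val-Arg-AMC (20 μM) by 1 nM Cat L was monitored at ex 360/em 465 nm for 20 min, the linear phase. The buffer was 100 mM potassium phosphate pH 6.5 with 5 mM EDTA and DTT. IC50 values were derived by standard methods, in μM.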

The next experiment deals with Cathepsin S (UniProt P25774). The experiment is described as follows: Cathepsin enzyme inhibition assay (fluorogenic peptide substrate Z-Val-Val-Arg-AMC), Cathepsin S. The note with it: enzyme 1 nM, substrate 20 μM, pH 6.5; read-out: CatS IC50. The format is biochemical, human and mouse. The essentials:
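Compounds were combined with 1 nM human or mouse enzyme, and substrate then started the reaction. The buffer was potassium phosphate (100 mM, pH 6.5) containing EDTA-Na 5 mM, Triton X-100 0.001% and […] 5 mM.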

Each structure is given as a SMILES string. A value given as a limit tells only on which side of the number the result lay.

What is called IC50 is the concentration needed to halve the response being measured. `Cc1cc(N2C[C@H](S(=O)(=O)c3ccc(F)cc3C(F)(F)F)C[C@H]2C(=O)NC2(C#N)CC2)n(-c2ccc(C(F)(F)F)cc2)n1` [Example 267, (2S,4R)-4-(4-Fluoro-2-trifluoromethyl-benzenesulfonyl)-1-[5-methyl-2-(4-trifluoromethyl-phenyl)-2H-pyrazol-3-yl]-pyrrolidine-2-carboxylic acid (1-cyano-cyclopropyl)-amide]: the IC50 at Cat L was found to be 7810 nM; on Cathepsin S, 2.3 nM.
In the same order, the values of `Cc1cc(N2C[C@H](S(=O)(=O)c3ccccc3C(F)(F)F)C[C@H]2C(=O)NC2(C#N)CC2)n(C(C)C)n1` [Example 268, (2S,4R)-1-(2-Isopropyl-5-methyl-2H-pyrazol-3-yl)-4-(2-trifluoromethyl-benzenesulfonyl)-pyrrolidine-2-carboxylic acid (1-cyano-cyclopropyl)-amide] are 47300 nM and 2.35 nM.
In the same order, the values of `Cc1cc(N2C[C@H](S(=O)(=O)c3ccccc3C(F)(F)F)C[C@H]2C(=O)NC2(C#N)CC2)n(CC(F)(F)F)n1` [Example 269, (2S,4R)-1-[5-Methyl-2-(2,2,2-trifluoro-ethyl)-2H-pyrazol-3-yl]-4-(2-trifluoromethyl-benzenesulfonyl)-pyrrolidine-2-carboxylic acid (1-cyano-cyclopropyl)-amide] are 75100 nM and 1.6 nM.
On to `CC1(C(=O)N2C[C@H](S(=O)(=O)c3ccc(Br)cc3C(F)(F)F)C[C@H]2C(=O)NC2(C#N)CC2)CC1` [Example 270, (2S,4R)-4-(4-Bromo-2-trifluoromethyl-benzenesulfonyl)-1-(1-methyl-cyclopropanecarbonyl)-pyrrolidine-2-carboxylic acid (1-cyano-cyclopropyl)-amide], for which the IC50 on Cat L is ≥ 25000 nM; on Cathepsin S, 0.395 nM.
With `CC1(C(=O)N2C[C@H](S(=O)(=O)c3ccc(C4CC4)cc3C(F)(F)F)C[C@H]2C(=O)NC2(C#N)CC2)CC1` [Example 271, (2S,4R)-4-(4-Cyclopropyl-2-trifluoromethyl-benzenesulfonyl)-1-(1-methyl-cyclopropanecarbonyl)-pyrrolidine-2-carboxylic acid (1-cyano-cyclopropyl)-amide], the figures for the concentration for half-maximal inhibition (IC50) on Cat L and on Cathepsin S were 85600 nM and 1.75 nM, respectively.
As to `CN1CCN(c2ccc(S(=O)(=O)[C@@H]3C[C@@H](C(=O)NC4(C#N)CC4)N(C(=O)C4(C)CC4)C3)c(C(F)(F)F)c2)CC1` [Example 272, (2S,4R)-1-(1-Methyl-cyclopropanecarbonyl)-4-[4-(4-methyl-piperazin-1-yl)-2-trifluoromethyl-benzenesulfonyl]-pyrrolidine-2-carboxylic acid (1-cyano-cyclopropyl)-amide], the figures for the IC50 on Cat L and at Cathepsin S were 17100 nM and 0.6 nM, respectively.
For `N#CC1(NC(=O)[C@@H]2C[C@@H](S(=O)(=O)c3ccc(OCC(F)(F)F)cc3Cl)CN2C(=O)C2(c3ccc(Br)cc3)CC2)CC1` [Example 273, (2S,4R)-1-[1-(4-Bromo-phenyl)-cyclopropanecarbonyl]-4-[2-chloro-4-(2,2,2-trifluoro-ethoxy)-benzenesulfonyl]-pyrrolidine-2-carboxylic acid (1-cyano-cyclopropyl)-amide], in that order: 8.06 nM and 0.29 nM.
In the same order, the values of `CC(=O)N[C@H]1CC[C@H](CC(=O)N2C[C@H](S(=O)(=O)c3ccc(OCC(F)(F)F)cc3Cl)C[C@H]2C(=O)NC2(C#N)CC2)CC1` [Example 274, (2S,4R)-1-[2-(4-Acetylamino-cyclohexyl)-acetyl]-4-[2-chloro-4-(2,2,2-trifluoro-ethoxy)-benzenesulfonyl]-pyrrolidine-2-carboxylic acid (1-cyano-cyclopropyl)-amide] are 9130 nM and 0.935 nM.
For `N#CC1(NC(=O)[C@@H]2C[C@@H](S(=O)(=O)c3ccc(OCC(F)(F)F)cc3Cl)CN2C(=O)C(c2ccc(Cl)cc2)c2ccc(Cl)cc2)CC1` [Example 275, (2S,4R)-1-[2,2-Bis-(4-chloro-phenyl)-acetyl]-4-[2-chloro-4-(2,2,2-trifluoro-ethoxy)-benzenesulfonyl]-pyrrolidine-2-carboxylic acid (1-cyano-cyclopropyl)-amide], in that order: 2680 nM and 0.38 nM.
Consider `Cc1cccc(-n2nc(C)cc2N2C[C@H](S(=O)(=O)c3ccccc3C(F)(F)F)C[C@H]2C(=O)NC2(C#N)CC2)c1` [Example 276, (2S,4R)-1-(5-Methyl-2-m-tolyl-2H-pyrazol-3-yl)-4-(2-trifluoromethyl-benzenesulfonyl)-pyrrolidine-2-carboxylic acid (1-cyano-cyclopropyl)-amide], for which the 50% inhibitory concentration (IC50) at Cat L was found to be 9430 nM; on Cathepsin S, 0.392 nM.
In the same order, the values of `N#CC1(NC(=O)[C@@H]2C[C@@H](S(=O)(=O)c3ccc(OCC(F)(F)F)cc3Cl)CN2C(=O)C2(c3ccc(C(N)=O)cc3)CC2)CC1` [Example 277, (2S,4R)-1-[1-(4-Carbamoyl-phenyl)-cyclopropanecarbonyl]-4-[2-chloro-4-(2,2,2-trifluoro-ethoxy)-benzenesulfonyl]-pyrrolidine-2-carboxylic acid (1-cyano-cyclopropyl)-amide] are 445 nM and 0.14 nM.
Regarding `N#CC1(NC(=O)[C@@H]2C[C@@H](S(=O)(=O)c3ccc(OCC(F)(F)F)cc3Cl)CN2C(=O)C2(c3ccc(Cl)cc3)CCC2)CC1` [Example 278, (2S,4R)-1-[1-(4-Chloro-phenyl)-cyclobutanecarbonyl]-4-[2-chloro-4-(2,2,2-trifluoro-ethoxy)-benzenesulfonyl]-pyrrolidine-2-carboxylic acid (1-cyano-cyclopropyl)-amide], the half-inhibitory concentration (IC50) at Cat L came to 2750 nM; on Cathepsin S, 0.003 nM.
Regarding `CC(C)(C(=O)N1C[C@H](S(=O)(=O)c2ccc(OCC(F)(F)F)cc2Cl)C[C@H]1C(=O)NC1(C#N)CC1)c1ccc(Cl)cc1` [Example 279, (2S,4R)-1-[2-(4-Chloro-phenyl)-2-methyl-propionyl]-4-[2-chloro-4-(2,2,2-trifluoro-ethoxy)-benzenesulfonyl]-pyrrolidine-2-carboxylic acid (1-cyano-cyclopropyl)-amide], the IC50 worked out at 1310 nM at Cat L and 0.02 nM at Cathepsin S.
Take `N#CC1(NC(=O)[C@H]2C[C@H](S(=O)(=O)c3ccc(OCC(F)(F)F)cc3Cl)CN2C(=O)C2(C(F)(F)F)CC2)CC1` [Example 280, (2R,4S)-4-[2-Chloro-4-(2,2,2-trifluoro-ethoxy)-benzenesulfonyl]-1-(1-trifluoromethyl-cyclopropanecarbonyl)-pyrrolidine-2-carboxylic acid (1-cyano-cyclopropyl)-amide]: the IC50 at Cat L was 46500 nM; at Cathepsin S, 24.5 nM.
For `N#CC1(NC(=O)[C@@H]2C[C@@H](S(=O)(=O)c3ccccc3Cl)CN2C(=O)C2(c3ccc(OC(F)(F)F)cc3)CC2)CC1` [Example 281, (2S,4R)-4-(2-Chloro-benzenesulfonyl)-1-[1-(4-trifluoromethoxy-phenyl)-cyclopropanecarbonyl]-pyrrolidine-2-carboxylic acid (1-cyano-cyclopropyl)-amide], in that order: 145 nM and 0.28 nM.
Consider `CC(C)(C(=O)N1C[C@H](S(=O)(=O)c2ccccc2Cl)C[C@H]1C(=O)NC1(C#N)CC1)c1ccc(Cl)cc1` [Example 282, (2S,4R)-4-(2-Chloro-benzenesulfonyl)-1-[2-(4-chloro-phenyl)-2-methyl-propionyl]pyrrolidine-2-carboxylic acid (1-cyano-cyclopropyl)-amide], for which the IC50 at Cat L turned out to be 270 nM; on Cathepsin S, 0.24 nM.
In the case of `N#CC1(NC(=O)[C@@H]2C[C@@H](S(=O)(=O)c3ccccc3Cl)CN2C(=O)C2(c3ccc(Cl)cc3)CCC2)CC1` [Example 283, (2S,4R)-4-(2-Chloro-benzenesulfonyl)-1-[1-(4-chloro-phenyl)-cyclobutanecarbonyl]-pyrrolidine-2-carboxylic acid (1-cyano-cyclopropyl)-amide], the half-maximal inhibitory concentration (IC50) at Cat L was 24 nM; at Cathepsin S, 0.12 nM.
For `N#CC1(NC(=O)[C@@H]2C[C@@H](S(=O)(=O)c3ccccc3Cl)CN2C(=O)C2(c3ccc(Cl)c(Cl)c3)CC2)CC1` [Example 284, (2S,4R)-4-(2-Chloro-benzenesulfonyl)-1-[1-(3,4-dichloro-phenyl)-cyclopropanecarbonyl]-pyrrolidine-2-carboxylic acid (1-cyano-cyclopropyl)-amide], the IC50 at Cat L was found to be 463 nM; on Cathepsin S it was 0.07 nM.
In the same order, the values of `N#CC1(NC(=O)[C@@H]2C[C@@H](S(=O)(=O)c3ccccc3Cl)CN2C(=O)C2(c3ccncc3)CC2)CC1` [Example 285, (2S,4R)-4-(2-Chloro-benzenesulfonyl)-1-(1-pyridin-4-yl-cyclopropanecarbonyl)-pyrrolidine-2-carboxylic acid (1-cyano-cyclopropyl)-amide] are 2600 nM and 0.227 nM.
In the same order, the values of `N#CC1(NC(=O)[C@@H]2C[C@@H](S(=O)(=O)c3ccc(OCC(F)(F)F)cc3Cl)CN2C(=O)C2(c3ccccc3)CCOCC2)CC1` [Example 287, (2S,4R)-4-[2-Chloro-4-(2,2,2-trifluoro-ethoxy)-benzenesulfonyl]-1-(4-phenyl-tetrahydro-pyran-4-carbonyl)-pyrrolidine-2-carboxylic acid (1-cyano-cyclopropyl)-amide] are 3170 nM and 0.175 nM.
For `Cn1cc(-c2ccc(C3(C(=O)N4C[C@H](S(=O)(=O)c5ccc(OCC(F)(F)F)cc5Cl)C[C@H]4C(=O)NC4(C#N)CC4)CC3)cc2)cn1` [Example 288, (2S,4R)-4-[2-Chloro-4-(2,2,2-trifluoro-ethoxy)-benzenesulfonyl]-1-{1-[4-(1-methyl-1H-pyrazol-4-yl)-phenyl]-cyclopropanecarbonyl}-pyrrolidine-2-carboxylic acid (1-cyano-cyclopropyl)-amide], in that order: 3480 nM and 0.08 nM.

(Values after patent US8163793B2, “Proline derivatives” (Hoffman-La Roche Inc., priority 2009, dated 2012).)
